The values below come from patent US9555022B2, “Substituted triazolopyridines” (Bayer Intellectual Property GmbH, priority 2010, dated 2017).

The structures appear in SMILES notation. Counter-ions that a name gives are not always drawn. Where only a bound is given, the exact number is not on record here.

The IC50 is the midpoint of a concentration-inhibition curve.

The target of this experiment is human full length recombinant Mps-1 kinase (Homo sapiens (Human), UniProt P33981). Kind of experiment: Mps-1 Kinase Assay (TR-FRET). It counts as biochemical. The conditions noted are these: 10 μM ATP, 1 μM biotinylated peptide substrate, 60 min at 22° C., read-out: Mps-1 Inhibition, IC50 in M. The procedure:
The human kinase Mps-1 phosphorylates a biotinylated substrate peptide. Detection of the phosphorylated product is achieved by time-resolved fluorescence resonance energy transfer (TR-FRET) from Europium-labelled anti-phospho-Serine/Threonine antibody as donor to streptavidin labelled with cross-linked allophycocyanin (SA-XLent) as acceptor. Compounds are tested for their inhibition of the kinase activity.
N-terminally GST-tagged human full length recombinant Mps-1 kinase (purchased from Invitrogen, Karslruhe, Germany, cat. no PV4071) was used. As substrate for the kinase reaction a biotinylated peptide of the amino-acid sequence […] (C-terminus in amide form, purchased from Biosynthan GmbH, Berlin) was used.
The concentration of Mps-1 in the assay was adjusted to the activity of the enzyme lot and was chosen appropriate to have the assay in the linear range, typical enzyme concentrations were in the range of about 1 nM (final conc. in the 5 μl assay volume).
The resulting mixture was incubated 1 h at 22° C. to allow the binding of the phosphorylated peptide to the anti-phospho(Ser/Thr)-Europium-antibody. Subsequently the amount of phosphorylated substrate was evaluated by measurement of the resonance energy transfer from the Europium-labelled anti-phospho(Ser/Thr) antibody to the Streptavidin-XLent.
(In general: TR-FRET usually uses a lanthanide donor and a delayed reading to cut background.)

Chain of human full length recombinant Mps-1 kinase (P33981 whole entry): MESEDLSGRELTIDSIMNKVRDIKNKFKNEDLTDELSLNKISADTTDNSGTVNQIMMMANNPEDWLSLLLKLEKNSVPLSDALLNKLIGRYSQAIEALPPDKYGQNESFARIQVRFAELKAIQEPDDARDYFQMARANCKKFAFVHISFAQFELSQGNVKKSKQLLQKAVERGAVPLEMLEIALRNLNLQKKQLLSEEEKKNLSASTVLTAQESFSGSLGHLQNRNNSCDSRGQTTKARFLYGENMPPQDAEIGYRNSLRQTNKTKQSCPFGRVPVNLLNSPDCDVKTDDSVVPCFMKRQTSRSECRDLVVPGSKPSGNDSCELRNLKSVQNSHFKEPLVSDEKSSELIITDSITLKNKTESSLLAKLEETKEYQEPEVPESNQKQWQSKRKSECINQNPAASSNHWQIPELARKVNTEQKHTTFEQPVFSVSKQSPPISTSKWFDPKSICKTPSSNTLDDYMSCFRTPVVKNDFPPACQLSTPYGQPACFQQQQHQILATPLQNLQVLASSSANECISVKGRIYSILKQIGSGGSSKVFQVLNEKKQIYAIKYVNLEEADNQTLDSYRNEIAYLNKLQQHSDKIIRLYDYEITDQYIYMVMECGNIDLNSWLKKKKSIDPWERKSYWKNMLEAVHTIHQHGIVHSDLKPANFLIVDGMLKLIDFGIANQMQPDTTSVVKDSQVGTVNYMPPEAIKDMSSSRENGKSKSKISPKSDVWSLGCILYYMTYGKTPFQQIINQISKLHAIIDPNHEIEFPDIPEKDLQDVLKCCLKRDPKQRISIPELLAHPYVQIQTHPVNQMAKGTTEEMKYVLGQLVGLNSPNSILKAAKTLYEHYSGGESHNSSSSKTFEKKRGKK

Turning to `COc1cc(C(=O)N2CCOCC2)ccc1Nc1nc2ccc(-c3ccc(NC(=O)CC4CC4)cc3)cn2n1` [Example 01.01, 2-cyclopropyl-N-[4-(2-{[2-methoxy-4-(morpholin-4-ylcarbonyl)phenyl]amino}[,2]-triazolo[1,5-a]pyridin-6-yl)phenyl]acetamide], the IC50 is 5.56 nM.
The same measure for `CCOc1cc(C(=O)N2CCOCC2)ccc1Nc1nc2ccc(-c3ccc(NC(=O)CC4CC4)cc3)cn2n1` [Example 01.02, 2-cyclopropyl-N-[4-(2-{[2-ethoxy-4-(morpholin-4-ylcarbonyl)phenyl]amino}[,2]-triazolo[1,5-a]pyridin-6-yl)phenyl]acetamide]: ≤ 1 nM; for `COc1cc(N2CCN(C)CC2)ccc1Nc1nc2ccc(-c3ccc(NC(=O)CC4CC4)cc3)cn2n1` [Example 01.03, 2-cyclopropyl-N-[4-(2-{[2-methoxy-4-(4-methylpiperazin-1-yl)phenyl]amino}[,2]-triazolo[1,5-a]pyridin-6-yl)phenyl]acetamide trifluoroacetate]: 6.02 nM; for `CCOc1cc(C(=O)N2CCOCC2)ccc1Nc1nc2ccc(-c3ccc(NC(=O)Cc4ccc(F)cc4)cc3)cn2n1` [Example 02.02, N-[4-(2-{[2-ethoxy-4-(morpholin-4-ylcarbonyl)phenyl]amino}[,2]-triazolo[1,5-a]pyridin-6-yl)phenyl]-2-(4-fluorophenyl)acetamide]: ≤ 1 nM.
On to `COc1cc(C2=NC(C)(C)CO2)ccc1Nc1nc2ccc(-c3ccc(NC(=O)Cc4ccc(F)cc4)cc3)cn2n1` [Example 02.03, N-[4-(2-{[4-(4,4-dimethyl-4,5-dihydro-1,3-oxazol-2-yl)-2-methoxyphenyl]amino}[,2]-triazolo[1,5-a]pyridin-6-yl)phenyl]-2-(4-fluorophenyl)acetamide], for which the IC50 came out at 1.04 nM.
Under `COc1cc(C(=O)N2CCN(C)CC2)ccc1Nc1nc2ccc(-c3ccc(NC(=O)Cc4ccc(F)cc4)cc3)cn2n1` [Example 02.04, 2-(4-fluorophenyl)-N-{4-[2-({2-methoxy-4-[(4-methylpiperazin-1-yl)carbonyl]phenyl}amino)[,2]triazolo[1,5-a]pyridin-6-yl]phenyl}acetamide] stands ≤ 1 nM.
For `CCOc1cc(C(=O)N2CCN(C(=O)OC(C)(C)C)CC2)ccc1Nc1nc2ccc(-c3ccc(NC(=O)Cc4ccc(F)cc4)cc3)cn2n1` [Example 02.05, tert-butyl 4-(3-ethoxy-4-{[6-(4-{[(4-fluorophenyl)acetyl]amino}phenyl)[,2]triazolo[1,5-a]pyridin-2-yl]amino}benzoyl)piperazine-1-carboxylate], the half-inhibitory concentration (IC50) was ≤ 1 nM.
As for `CCOc1cc(C(=O)N2CCNCC2)ccc1Nc1nc2ccc(-c3ccc(NC(=O)Cc4ccc(F)cc4)cc3)cn2n1` [Example 02.06, N-[4-(2-{[2-ethoxy-4-(piperazin-1-ylcarbonyl)phenyl]amino}[,2]-triazolo[1,5-a]pyridin-6-yl)phenyl]-2-(4-fluorophenyl)acetamide], the IC50 is ≤ 1 nM.
For `CCOc1cc(C(=O)N2CCN(CC3CC3)CC2)ccc1Nc1nc2ccc(-c3ccc(NC(=O)Cc4ccc(F)cc4)cc3)cn2n1` [Example 02.07, N-(4-{2-[(4-{[4-(cyclopropylmethyl)piperazin-1-yl]carbonyl}-2-ethoxyphenyl)amino][,2]triazolo[1,5-a]pyridin-6-yl}phenyl)-2-(4-fluorophenyl)acetamide], the concentration for half-maximal inhibition (IC50) was ≤ 1 nM.
With `COc1cc(N2CCN(C)CC2)ccc1Nc1nc2ccc(-c3ccc(NC(=O)Cc4ccc(F)cc4)cc3)cn2n1` [Example 02.08, 2-(4-fluorophenyl)-N-[4-(2-{[2-methoxy-4-(4-methylpiperazin-1-yl)phenyl]amino}[,2]-triazolo[1,5-a]pyridin-6-yl)phenyl]acetamide trifluoroacetate], the IC50 worked out at 1.05 nM.
Under `O=C(Cc1ccc(F)cc1)Nc1ccc(-c2ccc3nc(Nc4ccc(C(=O)N5CCOCC5)cc4OC(F)(F)F)nn3c2)cc1` [Example 02.10, 2-(4-fluorophenyl)-N-[4-(2-{[4-(morpholin-4-ylcarbonyl)-2-(trifluoromethoxy)phenyl]amino}[,2]-triazolo[1,5-a]pyridin-6-yl)phenyl]acetamide] stands ≤ 1 nM; under `CCOc1cc(N2CCOC2=O)ccc1Nc1nc2ccc(-c3ccc(NC(=O)Cc4ccc(F)cc4)cc3)cn2n1` [Example 02.12, N-[4-(2-{[2-ethoxy-4-(2-oxo-1,3-oxazolidin-3-yl)phenyl]amino}[,2]-triazolo[1,5-a]pyridin-6-yl)phenyl]-2-(4-fluorophenyl)acetamide], ≤ 1 nM; under `Cc1cc(N2CCOC2=O)ncc1Nc1nc2ccc(-c3ccc(NC(=O)Cc4ccc(F)cc4)cc3)cn2n1` [Example 02.13, 2-(4-fluorophenyl)-N-[4-(2-{[4-methyl-6-(2-oxo-1,3-oxazolidin-3-yl)pyridin-3-yl]amino}[,2]-triazolo[1,5-a]pyridin-6-yl)phenyl]acetamide], ≤ 1 nM.
The same measure for `COc1cc(C2=NCCO2)ccc1Nc1nc2ccc(-c3ccc(NC(=O)Cc4ccc(F)cc4)cc3)cn2n1` [Example 02.14, N-[4-(2-{[4-(4,5-dihydro-1,3-oxazol-2-yl)-2-methoxyphenyl]amino}[,2]-triazolo[1,5-a]pyridin-6-yl)phenyl]-2-(4-fluorophenyl)acetamide]: ≤ 1 nM.
`Cc1cc(C2=NCCO2)ccc1Nc1nc2ccc(-c3ccc(NC(=O)Cc4ccc(F)cc4)cc3)cn2n1` [Example 02.15, N-[4-(2-{[4-(4,5-dihydro-1,3-oxazol-2-yl)-2-methylphenyl]amino}[,2]triazolo[1,5-a]pyridin-6-yl)phenyl]-2-(4-fluorophenyl)acetamide]: the IC50 was ≤ 1 nM.
Under `COc1cc(C(=O)N2CCS(=O)(=O)CC2)ccc1Nc1nc2ccc(-c3ccc(NC(=O)Cc4ccc(F)cc4)cc3)cn2n1` [Example 02.18, N-{4-[2-({4-[(1,1-dioxidothiomorpholin-4-yl)carbonyl]-2-methoxyphenyl}amino)[,2]triazolo[1,5-a]pyridin-6-yl]phenyl}-2-(4-fluorophenyl)acetamide] stands ≤ 1 nM; under `COc1cc(C(=O)N2CC(O)C2)ccc1Nc1nc2ccc(-c3ccc(NC(=O)Cc4ccc(F)cc4)cc3)cn2n1` [Example 02.19, 2-(4-fluorophenyl)-N-{4-[2-({4-[(3-hydroxyazetidin-1-yl)carbonyl]-2-methoxyphenyl}amino)[,2]triazolo[1,5-a]pyridin-6-yl]phenyl}acetamide], ≤ 1 nM.
Consider `COc1cc(C(=O)N2CCC(O)CC2)ccc1Nc1nc2ccc(-c3ccc(NC(=O)Cc4ccc(F)cc4)cc3)cn2n1` [Example 02.20, 2-(4-fluorophenyl)-N-{4-[2-({4-[(4-hydroxypiperidin-1-yl)carbonyl]-2-methoxyphenyl}amino)[,2]triazolo[1,5-a]pyridin-6-yl]phenyl}acetamide], for which the IC50 was ≤ 1 nM.
The same measure for `COc1cc(C(=O)NC2COC2)ccc1Nc1nc2ccc(-c3ccc(NC(=O)Cc4ccc(F)cc4)cc3)cn2n1` [Example 02.21, 4-{[6-(4-{[(4-fluorophenyl)acetyl]amino}phenyl)[,2]triazolo[1,5-a]pyridin-2-yl]amino}-3-methoxy-N-(oxetan-3-yl)benzamide]: ≤ 1 nM; for `COc1cc(C(=O)N2CCC2)ccc1Nc1nc2ccc(-c3ccc(NC(=O)Cc4ccc(F)cc4)cc3)cn2n1` [Example 02.22, N-[4-(2-{[4-(azetidin-1-ylcarbonyl)-2-methoxyphenyl]amino}[,2]-triazolo[1,5-a]pyridin-6-yl)phenyl]-2-(4-fluorophenyl)acetamide]: ≤ 1 nM.
For the compound `CCOc1cc(C(=O)N2CC3(COC3)C2)ccc1Nc1nc2ccc(-c3ccc(NC(=O)Cc4ccc(F)cc4)cc3)cn2n1` [Example 02.23, N-[4-(2-{[2-ethoxy-4-(2-oxa-6-azaspiro[3.3]hept-6-ylcarbonyl)phenyl]amino}[,2]triazolo[1,5-a]pyridin-6-yl)phenyl]-2-(4-fluorophenyl)acetamide], the 50% inhibitory concentration (IC50) is ≤ 1 nM.
As for `CCOc1cc(C(=O)N2CC(O)C2)ccc1Nc1nc2ccc(-c3ccc(NC(=O)Cc4ccc(F)cc4)cc3)cn2n1` [Example 02.24, N-{4-[2-({2-ethoxy-4-[(3-hydroxyazetidin-1-yl)carbonyl]phenyl}amino)[,2]triazolo[1,5-a]pyridin-6-yl]phenyl}-2-(4-fluorophenyl)acetamide], the IC50 was ≤ 1 nM.
Turning to `CCOc1cc(C(=O)NC2CCN(C)CC2)ccc1Nc1nc2ccc(-c3ccc(NC(=O)Cc4ccc(F)cc4)cc3)cn2n1` [Example 02.25, 3-ethoxy-4-{[6-(4-{[(4-fluorophenyl)acetyl]amino}phenyl)[,2]-triazolo[1,5-a]pyridin-2-yl]amino}-N-(1-methylpiperidin-4-yl)benzamide], the 50% inhibitory concentration (IC50) was ≤ 1 nM.
Regarding `O=C(Cc1ccc(F)cc1)Nc1ccc(-c2ccc3nc(Nc4ccc(C(=O)N5CC6(COC6)C5)cc4OCC(F)(F)F)nn3c2)cc1` [Example 02.26, 2-(4-fluorophenyl)-N-[4-(2-{[4-(2-oxa-6-azaspiro[3.3]hept-6-ylcarbonyl)-2-(2,2,2-trifluoroethoxy)phenyl]amino}[,2]triazolo[1,5-a]pyridin-6-yl)phenyl]acetamide], the half-inhibitory concentration (IC50) was ≤ 1 nM.
Regarding `O=C(Cc1ccc(F)cc1)Nc1ccc(-c2ccc3nc(Nc4ccc(C(=O)N5CC(O)C5)cc4OCC(F)(F)F)nn3c2)cc1` [Example 02.27, 2-(4-fluorophenyl)-N-{4-[2-({4-[(3-hydroxyazetidin-1-yl)carbonyl]-2-(2,2,2-trifluoroethoxy)phenyl}amino)[,2]triazolo[1,5-a]pyridin-6-yl]phenyl}acetamide], the half-maximal inhibitory concentration (IC50) was ≤ 1 nM.
